Reference: US9399646B2 (Genentech, Inc., priority 2010, dated 2016)

Key:
[1] = system: MCF-7 cells; assay: Breast cancer cell viability assay (CellTiter-Glo, 5 days); assay type: cell-based; settings: 5 days' compound exposure; for IC50: Homo sapiens, MCF7, 120 h
How it was run: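 Eleven-point semilog compound series, final 0.3-0.000003 μM, added to overnight-adhered MCF-7 cells (320/well; RPMI, 10% FBS, 20 mM HEPES) for 5 days. Viability read by CellTiter-Glo luminescence, background from medium without cells subtracted, expressed relative to untreated cells.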

[2] = target: T1, ER-α in MCF-7 cells (Homo sapiens, UniProt P03372); assay: Breast cancer cell ER-α in cell western assay (SP1); assay type: cell-based; design: endogenous in cells; host or cells: MCF-7; settings: 4 or 24 hr post compound addition; for Emax: MCF7, SP1 antibody, read-out: ER-α In Cell Western Assay (SP1) Max Response; for DC50: SP1 antibody, read-out: ER-α In Cell Western Assay (SP1) IC50
T1 sequence (P03372 1-595): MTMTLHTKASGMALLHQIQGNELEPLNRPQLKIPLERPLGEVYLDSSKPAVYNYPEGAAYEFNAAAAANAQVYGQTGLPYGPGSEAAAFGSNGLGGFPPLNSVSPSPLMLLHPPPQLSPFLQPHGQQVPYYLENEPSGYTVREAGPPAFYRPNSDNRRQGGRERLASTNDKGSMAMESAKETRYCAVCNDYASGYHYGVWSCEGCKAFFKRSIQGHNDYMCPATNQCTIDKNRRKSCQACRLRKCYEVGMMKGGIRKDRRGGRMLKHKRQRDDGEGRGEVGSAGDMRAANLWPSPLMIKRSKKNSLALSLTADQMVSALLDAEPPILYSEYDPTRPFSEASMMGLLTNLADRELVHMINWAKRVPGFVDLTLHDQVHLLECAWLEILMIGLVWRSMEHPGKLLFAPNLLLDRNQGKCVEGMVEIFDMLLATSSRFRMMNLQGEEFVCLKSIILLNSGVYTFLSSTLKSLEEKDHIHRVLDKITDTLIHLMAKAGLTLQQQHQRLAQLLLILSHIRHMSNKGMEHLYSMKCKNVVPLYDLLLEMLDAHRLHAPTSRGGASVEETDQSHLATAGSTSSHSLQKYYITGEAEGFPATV
How it was run: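 Read-out is infrared in-cell western: SP1-detected ER intensity at 800 nm divided by DRAQ5 DNA intensity at 700 nm, relative to untreated wells ×100.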

Q: Which results are given for `CC/C(=C(/c1ccc(/C=C/C(=O)O)cc1)c1ccc2[nH]ncc2c1)c1cscc1C` [Compound 223, (E)-3-(4-((E)-1-(1H-Indazol-5-yl)-2-(4-methylthiophen-3-yl)but-1-en-1-yl)phenyl)acrylic acid]?
A: MCF7 Viability Assay Max Response [1]: ++ (++ = a single % value ≧ 40%); IC50 [1]: ≤ 100 nM; Emax [2]: ≥ 40%

Q: What does the source list for `CC/C(=C(/c1ccc(/C=C/C(=O)O)cc1)c1ccc2[nH]ncc2c1F)c1ccncc1Cl` [Compound 224, (E)-3-(4-((E)-2-(3-Chloropyridin-4-yl)-1-(4-fluoro-1H-indazol-5-yl)but-1-en-1-yl)phenyl)acrylic acid]?
A: MCF7 Viability Assay Max Response [1]: ++ (++ = a single % value ≧ 40%); IC50 [1]: ≤ 100 nM; Emax [2]: ≥ 40%; DC50 [2]: ≤ 100 nM

Q: For `CC/C(=C(/c1ccc(/C=C/C(=O)O)cc1)c1ccc2[nH]ncc2c1)c1cnsc1` [Compound 225, (E)-3-(4-((E)-1-(1H-Indazol-5-yl)-2-(isothiazol-4-yl)but-1-en-1-yl)phenyl)acrylic acid], which “MCF7 Viability Assay Max Response” value [1] is on record?
A: ++ (++ = a single % value ≧ 40%)

Q: What about the IC50 [1] of the same compound?
A: > 100 nM

Q: What about the Emax [2] of the same compound?
A: ≥ 40%

Q: What about the DC50 [2] of the same compound?
A: > 100 nM

Q: How did the “MCF7 Viability Assay Max Response” value [1] turn out when `CC/C(=C(/c1ccc(/C=C/C(=O)O)cc1)c1ccc2[nH]ncc2c1)c1ccncc1C` [Compound 226, (E)-3-(4-((E)-1-(1H-Indazol-5-yl)-2-(3-methylpyridin-4-yl)but-1-en-1-yl)phenyl)acrylic acid] was run?
A: ++ (++ = a single % value ≧ 40%)

Q: What about the IC50 [1] of the same compound?
A: ≤ 100 nM

Q: And the Emax [2]?
A: ≥ 40%

Q: Which results are given for `CC/C(=C(/c1ccc(/C=C/C(=O)O)cc1)c1ccc2[nH]ncc2c1)c1ccc(C)s1` [Compound 227, (E)-3-(4-((E)-1-(1H-Indazol-5-yl)-2-(5-methylthiophen-2-yl)but-1-en-1-yl)phenyl)acrylic acid]?
A: MCF7 Viability Assay Max Response [1]: ++ (++ = a single % value ≧ 40%); IC50 [1]: ≤ 100 nM; Emax [2]: ≥ 40%; DC50 [2]: ≤ 100 nM

Q: What does the source list for `CC/C(=C(/c1ccc(/C=C/C(=O)O)cc1)c1ccc2[nH]ncc2c1)c1cnc(C)s1` [Compound 229, (E)-3-(4-((E)-1-(1H-Indazol-5-yl)-2-(2-methylthiazol-5-yl)but-1-en-1-yl)phenyl)acrylic acid]?
A: MCF7 Viability Assay Max Response [1]: ++ (++ = a single % value ≧ 40%); IC50 [1]: > 100 nM; Emax [2]: ≥ 40%; DC50 [2]: > 100 nM

Q: `O=C(O)/C=C/c1ccc(/C(=C(/CCF)c2ccncc2Cl)c2ccc3[nH]ncc3c2)cc1` [Compound 230, (E)-3-(4-((E)-2-(3-Chloropyridin-4-yl)-4-fluoro-1-(1H-indazol-5-yl)but-1-en-1-yl)phenyl)acrylic acid] was tested. Which “MCF7 Viability Assay Max Response” value [1] did it give?
A: ++ (++ = a single % value ≧ 40%)

Q: And the IC50 [1]?
A: ≤ 100 nM

Q: What about the Emax [2] of the same compound?
A: ≥ 40%

Q: What about the DC50 [2] of the same compound?
A: ≤ 100 nM

Q: Which results are given for `CC/C(=C(/c1ccc(/C=C/C(=O)O)cc1)c1ccc2[nH]ncc2c1)c1ccncc1F` [Compound 231, (E)-3-(4-((E)-2-(3-Fluoropyridin-4-yl)-1-(1H-indazol-5-yl)but-1-en-1-yl)phenyl)acrylic acid]?
A: MCF7 Viability Assay Max Response [1]: ++ (++ = a single % value ≧ 40%); IC50 [1]: ≤ 100 nM; Emax [2]: ≥ 40%; DC50 [2]: ≤ 100 nM

Q: With `CC/C(=C(/c1ccc(/C=C/C(=O)O)cc1)c1ccc2nccn2c1)c1ccc(Cl)cc1Cl` [Compound 232, (E)-3-(4-((E)-2-(2,4-Dichlorophenyl)-1-(imidazo[1,2-a]pyridin-6-yl)but-1-en-1-yl)phenyl)acrylic acid] as the compound, how does the “MCF7 Viability Assay Max Response” value [1] read?
A: ++ (++ = a single % value ≧ 40%)

Q: And the IC50 [1]?
A: ≤ 100 nM

Q: And the Emax [2]?
A: ≥ 40%

Q: And the DC50 [2]?
A: ≤ 100 nM

Q: How did the “MCF7 Viability Assay Max Response” value [1] turn out when `CC/C(=C(/c1ccc(/C=C/C(=O)O)cc1)c1ccc2nccn2c1)c1ccc(F)cc1C(F)(F)F` [Compound 233, (E)-3-(4-((E)-2-(4-Fluoro-2-(trifluoromethyl)phenyl)-1-(imidazo[1,2-a]pyridin-6-yl)but-1-en-1-yl)phenyl)acrylic acid] was run?
A: ++ (++ = a single % value ≧ 40%)

Q: And the IC50 [1]?
A: ≤ 100 nM

Q: What about the Emax [2] of the same compound?
A: ≥ 40%

Q: What about the DC50 [2] of the same compound?
A: ≤ 100 nM

Q: With `CC/C(=C(/c1ccc(/C=C/C(=O)O)cc1)c1ccc2[nH]ncc2c1)c1ccnc(OC)c1` [Compound 236, (E)-3-(4-((E)-1-(1H-Indazol-5-yl)-2-(2-methoxypyridin-4-yl)but-1-en-1-yl)phenyl)acrylic acid] as the compound, how does the “MCF7 Viability Assay Max Response” value [1] read?
A: ++ (++ = a single % value ≧ 40%)

Q: What about the IC50 [1] of the same compound?
A: ≤ 100 nM

Q: What about the Emax [2] of the same compound?
A: ≥ 40%

Q: And the DC50 [2]?
A: ≤ 100 nM

Q: Which “MCF7 Viability Assay Max Response” value [1] does the source give for `CC/C(=C(/c1ccc(/C=C/C(=O)O)cc1)c1ccc2[nH]ncc2c1)c1ccc2c(c1)OCO2` [Compound 240, (E)-3-(4-((E)-2-(Benzo[d][1,3]dioxol-5-yl)-1-(1H-indazol-5-yl)but-1-en-1-yl)phenyl)acrylic acid] here?
A: ++ (++ = a single % value ≧ 40%)

Q: What about the IC50 [1] of the same compound?
A: ≤ 100 nM

Q: What about the Emax [2] of the same compound?
A: ≥ 40%

Q: And the DC50 [2]?
A: ≤ 100 nM

Q: Which “MCF7 Viability Assay Max Response” value [1] does the source give for `CC/C(=C(/c1ccc(/C=C/C(=O)O)cc1)c1ccc2[nH]ncc2c1)c1sccc1C` [Compound 241, (E)-3-(4-((E)-1-(1H-Indazol-5-yl)-2-(3-methylthiophen-2-yl)but-1-en-1-yl)phenyl)acrylic acid] here?
A: ++ (++ = a single % value ≧ 40%)

Q: And the IC50 [1]?
A: ≤ 100 nM

Q: What about the Emax [2] of the same compound?
A: ≥ 40%

Q: What about the DC50 [2] of the same compound?
A: ≤ 100 nM

Q: What does the source list for `CC/C(=C(/c1ccc(/C=C/C(=O)O)cc1)c1ccc2[nH]ncc2c1F)c1cscc1C` [Compound 242, (E)-3-(4-((E)-1-(4-Fluoro-1H-indazol-5-yl)-2-(4-methylthiophen-3-yl)but-1-en-1-yl)phenyl)acrylic acid]?
A: MCF7 Viability Assay Max Response [1]: ++ (++ = a single % value ≧ 40%); IC50 [1]: ≤ 100 nM; Emax [2]: ≥ 40%; DC50 [2]: ≤ 100 nM

Q: `CC/C(=C(/c1ccc(/C=C/C(=O)O)cc1)c1cc(F)c2[nH]ncc2c1)c1ccncc1Cl` [Compound 245, (E)-3-(4-((E)-2-(3-chloropyridin-4-yl)-1-(7-fluoro-1H-indazol-5-yl)but-1-en-1-yl)phenyl)acrylic acid] was tested. Which “MCF7 Viability Assay Max Response” value [1] did it give?
A: ++ (++ = a single % value ≧ 40%)

Q: And the IC50 [1]?
A: ≤ 100 nM

Q: And the Emax [2]?
A: ≥ 40%

Q: And the DC50 [2]?
A: ≤ 100 nM

Q: Which “MCF7 Viability Assay Max Response” value [1] does the source give for `CC/C(=C(/c1ccc(/C=C/C(=O)O)cc1)c1cnc2[nH]ccc2n1)c1ccccc1` [Compound 246, (E)-3-(4-((E)-2-Phenyl-1-(5H-pyrrolo[2,3-b]pyrazin-2-yl)but-1-en-1-yl)phenyl)acrylic acid] here?
A: + (+ = a single % value < 40%)

Q: And the IC50 [1]?
A: > 100 nM

Q: What about the Emax [2] of the same compound?
A: ≥ 40%

Q: And the DC50 [2]?
A: > 100 nM

Q: How did the “MCF7 Viability Assay Max Response” value [1] turn out when `CC/C(=C(/c1ccc(/C=C/C(=O)O)cc1)c1ccc2[nH]ncc2c1)c1ccc2occc2c1` [Compound 247, (E)-3-(4-((E)-2-(Benzofuran-5-yl)-1-(1H-indazol-5-yl)but-1-en-1-yl)phenyl)acrylic acid] was run?
A: ++ (++ = a single % value ≧ 40%)

Q: And the IC50 [1]?
A: ≤ 100 nM

Q: And the Emax [2]?
A: ≥ 40%

Q: And the DC50 [2]?
A: ≤ 100 nM

Q: What does the source list for `CC/C(=C(/c1ccc(/C=C/C(=O)O)cc1)c1ccc2[nH]ncc2c1)c1cccc(N2CCCC2)c1` [Compound 249]?
A: MCF7 Viability Assay Max Response [1]: ++ (++ = a single % value ≧ 40%); IC50 [1]: > 100 nM; Emax [2]: ≥ 40%; DC50 [2]: ≤ 100 nM

Q: Which results are given for `CC/C(=C(/c1ccc(/C=C/C(=O)O)cc1)c1ccc2[nH]ncc2c1)c1ccc2c(c1)OCCO2` [Compound 250, (E)-3-(4-((E)-2-(2,3-Dihydrobenzo[b][1,4]dioxin-6-yl)-1-(1H-indazol-5-yl)but-1-en-1-yl)phenyl)acrylic acid]?
A: MCF7 Viability Assay Max Response [1]: ++ (++ = a single % value ≧ 40%); IC50 [1]: ≤ 100 nM; Emax [2]: ≥ 40%; DC50 [2]: ≤ 100 nM
